# Reference: PMC7590976, “Detection of Active Granzyme A in NK92 Cells with Fluorescent Activity-Based Probe” (Journal of Medicinal Chemistry, 2020)
# How the values were obtained:
# GrK = biological target: T1, GrK (Homo sapiens, UniProt P49863); assay: Residual activity assay, GrK; format: biochemical; conditions: 488 nM GrK preincubated with 10 μM compound 30 min 37 °C; 200 μM GrKref
# T1 construct: made in house; host or cells: Pichia pastoris
# T1 sequence (P49863 27-264): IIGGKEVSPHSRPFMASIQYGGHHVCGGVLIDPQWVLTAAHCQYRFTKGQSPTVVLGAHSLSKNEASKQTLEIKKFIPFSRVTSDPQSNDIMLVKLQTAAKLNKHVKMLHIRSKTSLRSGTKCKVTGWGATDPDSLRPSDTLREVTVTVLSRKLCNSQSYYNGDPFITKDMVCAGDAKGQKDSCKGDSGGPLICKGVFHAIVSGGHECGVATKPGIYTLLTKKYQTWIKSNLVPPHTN
# Method: (§1) We wondered whether the selectivity of our SK15-based molecules for GrA would be maintained by substrate structure modifications, such as replacing ACC with a diphenyl phosphonate warhead and changing the N-terminus from acetyl to the cyanine derivative Cy5.
# (§2) As a control, enzymes without inhibitor and probe were tested.
# PR3 = assay: Residual activity assay, PR3; format: biochemical; conditions: 3.4 nM PR3 preincubated with 10 μM compound 30 min 37 °C; substrate Ac-Glu(O-Bzl)-Lys(Ac)-Hyp(Bzl)-Nva-ACC
# Method: as §1, §2
# MDA-MB-231 cells = conditions: MDA-MB-231, 24 h, MTS at 490 nm, 1 nM to 10 μM tested, duplicate
# GrA in NK92 cells = assay: SK15.5 cell membrane permeability assay / GrA labeling in live NK92 cells; format: cell-based, human; conditions: SK15I 10 μM, 1 h, prior to 1 μM SK15.5
# Method: (B) SK15.5 probe cell permeability. […] The results represent two biological replicates.
# We noticed a strongly labeled species within 30 min, and the intensity increased until 2 h (Figure 5B). […] As an additional control, immunolabeling was performed and confirmed the selective binding of the probe with GrA (for full size blots, please see Figure S3).
# As a control, GrA was preinhibited with 10 μM (final concentration) SK15I and incubated for 1 h at 37 °C, and untreated samples were simultaneously incubated. At the end of every time point, the cells were centrifuged, washed twice with DPBS, centrifuged and treated with 100 μL of 1× SDS/DTT solution. Afterward, the samples were sonicated (10 kHz for 10 s) and loaded onto a 4–12% Bis-Tris 10-well gel (Invitrogen). SDS-PAGE was run at 165 V for 37 min, and membrane transfer (10 V, 60 min) was subsequently performed.
# GrM = assay: Residual activity assay, GrM; format: biochemical, human; conditions: 74 nM GrM preincubated with 10 μM compound 30 min 37 °C; substrate Ac-Lys-Val-Pro-Leu-ACC
# Method: as §1, §2
# GrA [1] = assay: Residual activity assay, GrA preinhibited with SK15I or SK15.5; format: biochemical, human; conditions: substrate SK15; preincubation 30 min, 37 °C
# Method: as §1, §2
# GrA [2] = biological target: T2, GrA (Homo sapiens, UniProt P12544); assay: Second-order inhibition rate constant kobs/I toward GrA, pseudo-first-order conditions; format: biochemical; conditions: GrA; versus 2000 M^–1 s^–1
# T2 construct: made in house; host or cells: Pichia pastoris
# T2 sequence (P12544 29-262): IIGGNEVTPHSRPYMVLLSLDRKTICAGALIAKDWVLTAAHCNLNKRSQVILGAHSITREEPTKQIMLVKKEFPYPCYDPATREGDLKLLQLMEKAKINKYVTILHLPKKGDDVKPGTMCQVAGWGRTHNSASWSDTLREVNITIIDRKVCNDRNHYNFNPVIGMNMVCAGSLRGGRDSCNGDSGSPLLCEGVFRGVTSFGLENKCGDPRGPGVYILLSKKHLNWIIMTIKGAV
# Method: We calculated the apparent second-order rate constants for inhibition (kobs(app)/I) of GrA-mediated SK15I under pseudo first-order conditions by serially diluting the new inhibitor in the range of 714–333 nM with a constant optimal substrate (SK15) concentration of 10 μM (Figure 3B).
# The second-order inhibition rate constant (kobs/I expressed in M^–1 s^–1) toward GrA was measured under pseudo-first-order kinetic conditions. Ten microliters of substrate (SK15) was mixed with varying inhibitor or probe concentrations and incubated at 37 °C for 15 min. […] Experiments are presented as the average of at least three experiments with standard deviation.
# GrB = biological target: T3, GrB (Homo sapiens, UniProt P10144); assay: Residual activity assay, GrB; format: biochemical; conditions: 18 nM GrB preincubated with 10 μM compound 30 min 37 °C; 200 μM GrBref
# T3 construct: made in house; host or cells: Pichia pastoris
# Method: as §1, §2
# hNE = assay: Residual activity assay, hNE; format: biochemical, human; conditions: 3.3 nM hNE preincubated with 10 μM compound 30 min 37 °C; substrate Ac-Arg(NO)2-Glu(Bzl)-Oic-Abu-ACC
# Method: as §1, §2
# GrA [3] = biological target: T2, GrA; assay: In-gel detection of recombinant GrA with SK15.5 (SDS-PAGE); format: binding; conditions: SK15I 1 μM, 1 h, 37 °C, then SK15.5 500 nM 1 h
# Method: Next, we tested the utility of our fluorescent probe for the in-gel detection of active GrA in test samples. […] We then ran a simple SDS-PAGE assay to detect labeled GrA (Figure 4A). […] In our hands, the probe bound to the enzyme, as indicated by the fluorescent 35 kDa species, after the minimal incubation time (5 min). […] The optimal concentration was 500 nM (strong signal) (Figure 4B).
# (A) Incubation time of SK15.5 with enzyme optimization. […] (D) GrA in-gel detection in NK92 cell lysates. […] The results are representative of at least 2 replicates.
# In contrast to the closely related GrB, GrH, GrM, and GrK, GrA is a homodimer formed by stable disulfide-linked subunits.[26] Since the subunits are oriented in opposite directions, the surrounding area may form an exosite.[26]
# In the incubation time optimization assay, the enzyme and probe concentrations were constant (250 nM), and the incubation time ranged from 0 to 120 min. […] Enzyme was incubated with probe in a volume of 80 μL, followed by the reduction with 40 μL of 3 × SDS/DTT for 5 min at 95 °C. Samples were centrifuged (3 min, 4500g), and 40 μL of each sample was run on 4–12% Bis-Tris 10-well gels (Invitrogen). The first well was loaded with 2 μL of the protein marker PageRuler Plus Prestained Protein Ladder (Thermo Scientific). Electrophoresis was conducted at 165 V for 37 min at room temperature. […] Total sample volume was 80 μL, to which 40 μL of 3× SDS/DTT was added and boiled for 5 min at 95 °C. Samples were centrifuged (3 min, 4500g), and 40 μL of each sample was run on 4–12% Bis-Tris 10-well gels (Invitrogen). Each form of the enzyme without SK15.5 and probe itself were run as controls. The first well was loaded with 2 μL of protein marker PageRuler Plus Prestained Protein Ladder (Thermo Scientific). Electrophoresis and membrane transfer were conducted in the same manner as above.
# T3 sequence (P10144 21-247): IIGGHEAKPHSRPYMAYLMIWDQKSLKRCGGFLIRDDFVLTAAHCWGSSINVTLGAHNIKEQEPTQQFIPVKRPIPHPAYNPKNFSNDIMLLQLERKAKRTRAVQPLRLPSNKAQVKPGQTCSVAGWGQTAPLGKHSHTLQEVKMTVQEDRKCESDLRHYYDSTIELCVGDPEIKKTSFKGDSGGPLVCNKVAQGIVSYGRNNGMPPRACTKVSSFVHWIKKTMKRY
substance,measurement,setting,value
MeOSuc-Tic-Gly-Oic-Arg^P(OPh)2 [SK15I],inhibition of GrK,GrK,less than 20%
same,inhibition of PR3,PR3,less than 20%
same,concentration above which cytotoxic,MDA-MB-231 cells,> 10 µM
same,effect of inhibitor pretreatment on SK15.5 probe binding in live cells (in words),GrA in NK92 cells,substantial decrease in probe binding
same,inhibition of GrM,GrM,less than 20%
same,residual GrA activity after preinhibition (in words),GrA [1],completely blocked
same,kobs/I relative to the reference inhibitor,GrA [2],approximately 85 fold
same,inhibition of GrB,GrB,less than 20%
same,inhibition of hNE,hNE,less than 20%
same,effect of preinhibition with inhibitor on SK15.5 probe binding to GrA (in words),GrA [3],prevented probe binding
